The values below come from patent US10894788B2, “Inhibitors of cyclin-dependent kinases” (Kinnate Biopharma Inc., priority 2018, dated 2021).

In test [1] the target is CDK12 wt/CycK (Homo sapiens (Human), UniProt Q9NYV4). The experiment in a line: Radiometric protein kinase assay (33PanQinase Activity Assay), Assay Condition A (thiol containing conditions). It is filed as biochemical. The conditions noted are these: thiol containing conditions (1.2 mM DTT), ATP 0.3 μM; read-out: CDK12 IC50 Condition A. In short, it runs like this:
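Recombinant human kinase incubated with [33P]ATP, substrate and compound (10 concentrations, 1×10^−04M to 3×10^−09M, singlicate, 1% DMSO) under thiol-containing buffer conditions, 60 min at 30 °C. 33Pi incorporation counted by scintillation; residual activity normalised to no-inhibitor and no-kinase controls, IC50 derived.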

Test [2] deals with CDK12 (Homo sapiens (Human), UniProt Q9NYV4). In words: Radiometric protein kinase assay (33PanQinase Activity Assay), Assay Condition B (thiol-free conditions). It is filed as biochemical. As to conditions: thiol-free conditions (1 mM TCEP, glutathione removed). In short, it runs like this:
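Radiometric 33PanQinase assay under thiol-free conditions: glutathione removed from protein preparations and no thiol reagents in buffer. Ten concentrations, 1×10^−05 M to 3×10^−10 M, singlicate, 1% DMSO final. Residual activity normalised to no-enzyme and no-inhibitor controls; IC50 by least-squares fit.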

In test [3] the test system is panel of 1,151 cancer cell lines. The conditions noted are these: in 52% of 1,151 cancer cell lines; cited from earlier work.

Molecules are shown by their SMILES. Some results are limits rather than exact numbers.

Sequence of CDK12 (Q9NYV4 whole entry): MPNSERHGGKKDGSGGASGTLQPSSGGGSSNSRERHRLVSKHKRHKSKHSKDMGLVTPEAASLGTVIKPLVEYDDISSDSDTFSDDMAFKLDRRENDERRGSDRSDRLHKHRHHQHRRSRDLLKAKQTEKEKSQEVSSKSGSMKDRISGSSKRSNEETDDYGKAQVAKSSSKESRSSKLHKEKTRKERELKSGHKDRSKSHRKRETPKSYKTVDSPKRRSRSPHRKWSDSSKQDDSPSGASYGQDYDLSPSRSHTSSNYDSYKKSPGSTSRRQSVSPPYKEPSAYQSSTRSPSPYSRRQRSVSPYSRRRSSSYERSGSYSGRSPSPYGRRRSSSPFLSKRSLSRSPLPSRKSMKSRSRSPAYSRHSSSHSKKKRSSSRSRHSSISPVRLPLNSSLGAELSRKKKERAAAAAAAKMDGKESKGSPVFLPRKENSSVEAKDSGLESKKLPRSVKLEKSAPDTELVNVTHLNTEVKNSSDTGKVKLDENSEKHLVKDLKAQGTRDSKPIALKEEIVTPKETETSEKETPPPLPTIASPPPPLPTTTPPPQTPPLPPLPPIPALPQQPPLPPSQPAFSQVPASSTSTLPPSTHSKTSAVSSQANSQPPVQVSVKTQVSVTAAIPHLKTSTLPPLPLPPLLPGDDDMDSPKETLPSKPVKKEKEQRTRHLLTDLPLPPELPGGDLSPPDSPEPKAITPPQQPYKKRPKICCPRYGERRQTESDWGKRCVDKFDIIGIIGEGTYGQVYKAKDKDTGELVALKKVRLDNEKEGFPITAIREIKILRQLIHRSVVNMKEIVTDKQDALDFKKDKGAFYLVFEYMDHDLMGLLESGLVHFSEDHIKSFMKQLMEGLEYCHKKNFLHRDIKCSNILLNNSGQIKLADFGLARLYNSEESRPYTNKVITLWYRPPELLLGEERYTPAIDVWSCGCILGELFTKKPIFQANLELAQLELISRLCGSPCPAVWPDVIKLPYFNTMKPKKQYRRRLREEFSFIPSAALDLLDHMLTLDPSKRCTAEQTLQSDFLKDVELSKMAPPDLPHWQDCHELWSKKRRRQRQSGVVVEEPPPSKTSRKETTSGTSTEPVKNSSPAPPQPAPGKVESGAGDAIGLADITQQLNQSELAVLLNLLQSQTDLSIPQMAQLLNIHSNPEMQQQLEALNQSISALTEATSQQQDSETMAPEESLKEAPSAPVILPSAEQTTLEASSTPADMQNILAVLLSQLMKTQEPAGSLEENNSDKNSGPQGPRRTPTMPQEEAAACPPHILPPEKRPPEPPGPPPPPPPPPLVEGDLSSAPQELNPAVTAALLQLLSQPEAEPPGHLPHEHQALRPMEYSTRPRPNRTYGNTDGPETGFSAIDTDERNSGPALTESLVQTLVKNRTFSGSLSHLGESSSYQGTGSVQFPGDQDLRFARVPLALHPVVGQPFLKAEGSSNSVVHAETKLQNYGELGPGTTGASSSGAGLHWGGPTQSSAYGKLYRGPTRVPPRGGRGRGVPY
Sequence of CDK12 (O75909 whole entry partner): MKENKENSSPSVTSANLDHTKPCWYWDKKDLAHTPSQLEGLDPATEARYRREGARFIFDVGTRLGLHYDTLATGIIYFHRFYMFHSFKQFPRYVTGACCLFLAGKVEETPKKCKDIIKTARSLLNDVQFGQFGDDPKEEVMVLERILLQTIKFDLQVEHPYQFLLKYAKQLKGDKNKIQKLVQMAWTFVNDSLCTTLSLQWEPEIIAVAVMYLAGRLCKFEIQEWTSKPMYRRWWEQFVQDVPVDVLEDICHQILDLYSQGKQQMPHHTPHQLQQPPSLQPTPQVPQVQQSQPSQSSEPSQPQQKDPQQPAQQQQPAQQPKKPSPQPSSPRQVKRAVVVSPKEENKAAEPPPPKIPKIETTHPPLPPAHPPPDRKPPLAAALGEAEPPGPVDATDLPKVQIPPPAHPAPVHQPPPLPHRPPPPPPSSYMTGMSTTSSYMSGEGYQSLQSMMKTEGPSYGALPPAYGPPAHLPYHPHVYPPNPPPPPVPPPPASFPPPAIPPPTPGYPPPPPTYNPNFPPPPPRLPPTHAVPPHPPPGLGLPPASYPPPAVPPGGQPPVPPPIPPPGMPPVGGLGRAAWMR
Sequence of CDK12 wt/CycK (Q9NYV4 whole entry): as the sequence (Q9NYV4 whole entry) above
Sequence of CDK12 wt/CycK (O75909 whole entry partner): as the sequence (O75909 whole entry partner) above

By IC50 is commonly meant the concentration that gives 50% inhibition. As to `C=CC(=O)Nc1ccc(C(=O)N2CC[C@@H](Nc3ncc(Cl)c(NC)n3)C2)cc1` [Example 62, (R)—N-(4-(3-((5-chloro-4-(methylamino)pyrimidin-2-yl)amino)pyrrolidine-1-carbonyl)phenyl)acrylamide], the IC50 in test [1] and in test [2] was below 0.1 µM in each case.

As to `C=CC(=O)Nc1ccc(C(=O)N2CC[C@@H](Nc3ncc(Br)c(OC)n3)C2)cc1` [Example 20, (R)—N-(4-(3-((5-bromo-4-methoxypyrimidin-2-yl)amino)pyrrolidine-1-carbonyl)phenyl)acrylamide], the IC50 in test [1] and in test [2] was below 0.1 µM each time. On to `CCC(=O)Nc1ccc(C(=O)N2CC[C@@H](Nc3ncc(Br)cn3)C2)cc1` [Example 17, (R)—N-(4-(3-((5-bromopyrimidin-2-yl)amino)pyrrolidine-1-carbonyl)phenyl)propionamide], for which the 50% inhibitory concentration (IC50) in test [1] and in test [2] was 0.1 to 1 µM each time. With `C=CC(=O)N(C)c1ccc(C(=O)N2CC[C@@H](Nc3ncc(Cl)c(OC)n3)C2)cc1` [Example 25, (R)—N-(4-(3-((5-chloro-4-methoxypyrimidin-2-yl)amino)pyrrolidine-1-carbonyl)phenyl)-N-methylacrylamide], the IC50 in test [1] and in test [2] was below 0.1 µM in each case. For `C=CC(=O)Nc1ccc(C(=O)N2CC[C@@H](Nc3ncc(F)c(OC)n3)C2)cc1` [Example 59, (R)—N-(4-(3-((5-fluoro-4-methoxypyrimidin-2-yl)amino)pyrrolidine-1-carbonyl)phenyl)acrylamide], the values for the IC50 in test [1] and in test [2] were 1 to 10 µM and 0.1 to 1 µM, respectively. The like results for `C=CC(=O)Nc1ccc(C(=O)N2CC[C@@H](Nc3ncc(C4CC4)cn3)C2)cc1` [Example 58, (R)—N-(4-(3-((5-cyclopropylpyrimidin-2-yl)amino)pyrrolidine-1-carbonyl)phenyl)acrylamide] were, in that order, 0.1 to 1 µM and below 0.1 µM.

For `CCC(=O)Nc1ccc(C(=O)N2CC[C@@H](Nc3ncc(Br)c(OC)n3)C2)cc1` [Example 14, (R)—N-(4-(3-((5-bromo-4-methoxypyrimidin-2-yl)amino)pyrrolidine-1-carbonyl)phenyl)propionamide], the 50% inhibitory concentration (IC50) in test [1] and in test [2] was below 0.1 µM in each case.

As for `CN(C)C/C=C/C(=O)Nc1ccc(C(=O)Nc2cccc(Nc3ncc(Cl)c(-c4c[nH]c5ccccc45)n3)c2)cc1` [THZ1], the IC50 in test [3] was below 0.2 µM. On to `C=CC(=O)Nc1ccc(C(=O)N2CC[C@@H](Nc3cnc(Cl)cn3)C2)cc1` [Example 53, (R)—N-(4-(3-((5-chloropyrazin-2-yl)amino)pyrrolidine-1-carbonyl)phenyl)acrylamide], for which the IC50 in test [1] and in test [2] was 0.1 to 1 µM each time.
